pKi: −log10 of the molar value.
What was measured:
Type in all cases: biochemical
PKC theta [1] = biological target: T1, PKC theta (Homo sapiens, UniProt Q04759); assay: PKC Theta II 33P radiometric kinase assay; settings: 0.5 nM PKC theta, 240 μM ATP, [γ-33P] ATP, 25° C., compound range 0-0.25 μM
Experimental: An assay buffer solution was prepared which consisted of 100 mM HEPES (pH 7.5), 10 mM MgCl2, 25 mM NaCl, 0.1 mM EDTA and 0.01% Brij. An enzyme buffer containing reagents to final assay concentrations of 0.002% Triton X-100, 200 μg/mL Phosphatidylserine, 20 μg/mL Diacylglycerol, 2 mM DTT, 150 μM substrate peptide ([…]) and 0.5 nM PKC theta kinase was prepared in assay buffer. To 22 μL of this enzyme buffer, in a 96 well plate, was added 2 μL of VRT stock solution in DMSO. The mixture was allowed to equilibrate for 10 mins at 25° C. […] ATP.
The reaction was stopped after 60 minutes by the addition of 100 μL 100 mM phosphoric acid. A phosphocellulose 96 well plate (Millipore, Cat no. MAPHNOB) was washed with […] 100 mM phosphoric acid prior to the addition of the reaction mixture (120 μL) and was left to soak for at least 30 minutes, prior to wash steps (4×200 μL 100 mM phosphoric acid). After drying, 100 μL Optiphase ‘SuperMix’ liquid scintillation cocktail (Perkin Elmer) was added to the well prior to scintillation counting (1450 Microbeta Liquid Scintillation Counter, Wallac).
For each Ki determination, 11 data points covering the VRT concentration range of 0-0.25 μM were obtained in duplicate (DMSO stocks were prepared from an initial 10 mM VRT stock with subsequent 1:2 serial dilutions). Ki values were calculated from initial rate data by non-linear regression using the Prism software package (Prism 4.0a, Graphpad Software, San Diego, Calif.).

PKC delta kinase = PKC delta kinase (Homo sapiens, UniProt Q05655); assay: PKC Delta coupled-enzyme kinase assay; settings: 46 nM PKC delta, 150 μM ATP, 30° C.; read-out: Ki PKC delta
Outline: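 Assay buffer was 100 mM HEPES pH 7.5, 10 mM MgCl2, 25 mM NaCl, 0.1 mM EDTA, 0.01% Brij. Enzyme buffer was equilibrated with compound in DMSO for 10 min at 30 °C. Ki values were derived by non-linear regression of initial rate data.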

PKC theta [2] = biological target: T1, PKC theta; assay: PKC Theta III assay, similar to PKC theta I with fluorescence read out; settings: fluorescence read out rather than UV
Experimental: (§1) An assay buffer solution was prepared which consisted of 100 mM HEPES (pH 7.5), 10 mM MgCl2, 25 mM NaCl, 0.1 mM EDTA and 0.01% Brij. […] To 60 μL of this enzyme buffer, in a 384 well plate, was added 2 μL of VRT stock solution in DMSO. The mixture was allowed to equilibrate for 10 mins at 30° C. The enzyme reaction was initiated by the addition of 5 μL stock ATP solution prepared in assay buffer to a final assay concentration of 240 μM. Initial rate data was determined from the rate of change of absorbance at 340 nm (corresponding to stoichiometric consumption of NADH) using a Molecular Devices Spectramax plate reader (Sunnyvale, Calif.) over 15 mins at 30° C. For each Ki determination 12 data points covering the VRT concentration range of 0-20 μM were obtained in duplicate (DMSO stocks were prepared from an initial 10 mM VRT stock with subsequent 1:2 serial dilutions). Ki values were calculated from initial rate data by non-linear regression using the Prism software package (Prism 4.0a, Graphpad Software, San Diego, Calif.).
Compounds tested in an assay similar to PKC theta I above with a fluorescence read out rather than a UV read out gave the following results: D compounds are (2-aminopyridin-3-yl)(6-(1-benzylpiperidin-4-ylamino)pyridin-2-yl)methanone, and (2-aminopyridin-3-yl)(6-(2,3-dihydroxypropylamino)pyridin-2-yl)methanone (naming by ChemDraw Ultre version 10.0).

PKC alpha kinase = PKC alpha kinase (Homo sapiens, UniProt P17252); assay: PKC Alpha coupled-enzyme kinase assay; settings: 4.5 nM PKC alpha, 130 μM ATP, 30° C.
Experimental: as §1, with “mM EDTA, 100 μM CaCl2” for “mM EDTA”, “To 16” for “To 60”, “added 1” for “added 2”, “of 16” for “of 5”, “of 130” for “of 240”

PKC theta [3] = biological target: T1, PKC theta; assay: PKC Theta I coupled-enzyme (NADH absorbance) kinase assay; settings: 18 nM PKC theta, 240 μM ATP, 30° C., absorbance at 340 nm
Experimental: An assay buffer solution was prepared which consisted of 100 mM HEPES (pH 7.5), 10 mM MgCl2, 25 mM NaCl, 0.1 mM EDTA and 0.01% Brij. […] To 60 μL of this enzyme buffer, in a 384 well plate, was added 2 μL of VRT stock solution in DMSO. The mixture was allowed to equilibrate for 10 mins at 30° C. […] Ki values were calculated from initial rate data by non-linear regression using the Prism software package (Prism 4.0a, Graphpad Software, San Diego, Calif.).

PKC delta kinase, sequence (Q05655 whole entry): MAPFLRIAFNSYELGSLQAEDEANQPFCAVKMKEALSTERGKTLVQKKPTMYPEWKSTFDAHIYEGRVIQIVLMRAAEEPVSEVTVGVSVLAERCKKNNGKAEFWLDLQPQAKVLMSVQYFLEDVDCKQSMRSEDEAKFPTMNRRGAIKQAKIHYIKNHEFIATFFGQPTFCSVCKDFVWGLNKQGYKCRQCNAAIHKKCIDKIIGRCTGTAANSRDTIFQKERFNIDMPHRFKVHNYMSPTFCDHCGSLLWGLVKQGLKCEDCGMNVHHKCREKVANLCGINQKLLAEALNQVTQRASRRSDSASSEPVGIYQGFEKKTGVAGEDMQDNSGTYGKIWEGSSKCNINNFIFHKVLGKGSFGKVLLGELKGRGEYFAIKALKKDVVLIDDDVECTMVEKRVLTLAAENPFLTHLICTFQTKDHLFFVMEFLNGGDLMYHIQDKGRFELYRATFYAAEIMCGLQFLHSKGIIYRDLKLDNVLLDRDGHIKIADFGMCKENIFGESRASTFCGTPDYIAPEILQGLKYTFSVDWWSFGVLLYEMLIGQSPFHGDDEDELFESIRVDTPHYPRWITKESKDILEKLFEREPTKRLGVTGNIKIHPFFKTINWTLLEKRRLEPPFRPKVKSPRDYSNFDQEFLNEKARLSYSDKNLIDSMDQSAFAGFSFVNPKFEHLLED
T1 sequence (Q04759 whole entry): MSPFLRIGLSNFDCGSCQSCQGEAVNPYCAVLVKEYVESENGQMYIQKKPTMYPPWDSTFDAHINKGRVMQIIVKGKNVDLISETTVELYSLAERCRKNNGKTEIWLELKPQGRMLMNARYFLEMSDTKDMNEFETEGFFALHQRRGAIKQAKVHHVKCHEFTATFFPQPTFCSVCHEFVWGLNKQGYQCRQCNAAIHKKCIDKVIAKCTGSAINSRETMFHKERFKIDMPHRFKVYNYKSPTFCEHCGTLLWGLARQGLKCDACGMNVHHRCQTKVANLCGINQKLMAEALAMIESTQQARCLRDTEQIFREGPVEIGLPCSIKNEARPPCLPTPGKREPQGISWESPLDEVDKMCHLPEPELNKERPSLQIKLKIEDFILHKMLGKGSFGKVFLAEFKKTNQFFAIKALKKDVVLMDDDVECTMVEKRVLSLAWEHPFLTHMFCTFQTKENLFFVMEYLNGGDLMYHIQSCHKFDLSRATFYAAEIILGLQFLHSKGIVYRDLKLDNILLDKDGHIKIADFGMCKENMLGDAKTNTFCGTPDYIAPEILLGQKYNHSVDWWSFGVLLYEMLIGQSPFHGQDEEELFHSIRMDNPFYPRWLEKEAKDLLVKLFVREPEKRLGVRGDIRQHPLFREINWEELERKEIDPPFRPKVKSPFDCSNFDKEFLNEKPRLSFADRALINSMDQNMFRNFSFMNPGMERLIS

SMILES | pKi (PKC theta [1]) | pKi (PKC delta kinase) | pKi (PKC theta [2]) | pKi (PKC alpha kinase) | pKi (PKC theta [3])
CN1CCCN(c2cccc(C(=O)c3cc(Br)cnc3N)n2)CC1 [compound 67] | > 7.30 | 6.30 to 7.30 | – | – | –
Nc1ncccc1C(=O)c1cccc(NC2CCN(Cc3ccccc3)CC2)n1 [(2-aminopyridin-3-yl)(6-(1-benzylpiperidin-4-ylamino)pyridin-2-yl)methanone] | – | – | < 5.55 | – | –
Nc1ncc(-c2c[nH]c3ccccc23)cc1C(=O)c1cncc(N2CCCNCC2)n1 [compound 213] | 6.30 to 7.30 | – | – | – | –
C=Cc1cnc(N)c(C(=O)c2cccc(N3CCC(N)CC3)n2)c1 [compound 164] | 6.30 to 7.30 | – | – | – | –
CC(C)C[C@H]1CN(c2cccc(C(=O)c3cccnc3N)n2)CCN1 [compound 193] | 6.30 to 7.30 | – | – | – | –
Cn1cc(-c2cnc(N)c(C(=O)c3cccc(N4CCCNCC4)n3)c2)c2ccccc21 [compound 210] | 6.30 to 7.30 | – | – | > 7.30 | –
CC1CNCCN1c1cccc(C(=O)c2cccnc2N)n1 (stereo not drawn) [compound 191] | 6.30 to 7.30 | – | – | – | –
Nc1ncccc1C(=O)c1cccc(N2CCNC(c3cccc(Cl)c3)C2)n1 (stereo not drawn) [compound 301] | 6.30 to 7.30 | – | – | – | –
C=Cc1cnc(N)c(C(=O)c2cccc(N3CCCNCC3)n2)c1 [compound 66] | 6.30 to 7.30 | 6.30 to 7.30 | – | > 7.30 | –
Nc1ncc(-c2c[nH]c3ccccc23)cc1C(=O)c1cccc(N2CCCNCC2)n1 [compound 179] | 6.30 to 7.30 | – | – | > 7.30 | –
Nc1ncc(Br)cc1C(=O)c1cccc(N2CCCN(C(=O)CC(F)(F)F)CC2)n1 [compound 75, 1-(4-(6-(2-amino-5-bromonicotinoyl)pyridin-2-yl)-1,4-diazepan-1-yl)-3,3,3-trifluoropropan-1-one] | > 7.30 | 6.30 to 7.30 | – | – | –
C=Cc1cnc(N)c(C(=O)c2cccc(N3CCCN(C(=O)CC(F)(F)F)CC3)n2)c1 [compound 107, 1-(4-(6-(2-amino-5-vinylnicotinoyl)pyridin-2-yl)-1,4-diazepan-1-yl)-3,3,3-trifluoropropan-1-one] | > 7.30 | 6.30 to 7.30 | – | – | –
Nc1ncccc1C(=O)c1ccn(C2CCNCC2)n1 [compound 184] | – | 5.55 to 6.30 | – | 5.55 to 6.30 | 5.55 to 6.30
Nc1ncc(-c2ccccc2)cc1C(=O)c1cccc(N2CCCNCC2)n1 [compound 45] | > 7.30 | 6.30 to 7.30 | – | > 7.30 | –
Nc1ncc(Br)cc1C(=O)c1cccc(N2CCCNCC2)n1 [compound 14, (6-(1,4-diazepan-1-yl)pyridin-2-yl)(2-amino-5-bromopyridin-3-yl)methanone] | > 7.30 | 6.30 to 7.30 | – | > 7.30 | –
Nc1ncccc1C(=O)c1cccc(N2CCNC(Cc3cnc[nH]3)C2)n1 (stereo not drawn) [compound 304] | – | 5.55 to 6.30 | – | < 5.55 | 5.55 to 6.30

Results, then the compound that gave them:

pKi (PKC theta [1]) | pKi (PKC delta kinase) | pKi (PKC theta [2]) | pKi (PKC alpha kinase) | pKi (PKC theta [3]) | SMILES
6.30 to 7.30 | – | – | – | – | C/C=C/c1ccc(N2CCN[C@@H](CC(C)C)C2)nc1C(=O)c1cccnc1N [compound 361]
6.30 to 7.30 | – | – | – | – | C#Cc1ccc(N2CCN[C@@H](CC(C)C)C2)nc1C(=O)c1cccnc1N [compound 357]
6.30 to 7.30 | – | – | – | – | C=Cc1ccc(N2CCN[C@@H](CC(C)C)C2)nc1C(=O)c1cccnc1N [compound 346]
– | 5.55 to 6.30 | – | 5.55 to 6.30 | 5.55 to 6.30 | Nc1ncccc1C(=O)c1nc(NC2CCCCC2N)ccc1C(F)(F)F (stereo not drawn) [compound 414]
– | 5.55 to 6.30 | – | 5.55 to 6.30 | 5.55 to 6.30 | NC(=O)CNc1ccc(C(F)(F)F)c(C(=O)c2cccnc2N)n1 [compound 386]
– | 5.55 to 6.30 | – | 5.55 to 6.30 | 5.55 to 6.30 | Nc1ncccc1C(=O)c1cccc(Br)n1 [compound 390]
– | 5.55 to 6.30 | – | 5.55 to 6.30 | 5.55 to 6.30 | NCCOc1ccc(C(F)(F)F)c(C(=O)c2cccnc2N)n1 [compound 378]
– | 5.55 to 6.30 | – | 5.55 to 6.30 | 5.55 to 6.30 | Nc1ncccc1C(=O)c1nc(N2CCNC(c3ccccc3)C2)ccc1C#CC1CC1 (stereo not drawn) [compound 408]
6.30 to 7.30 | – | – | > 7.30 | – | CC#Cc1ccc(N2CCN[C@@H](CC(C)C)C2)nc1C(=O)c1cccnc1N [compound 402]
– | 5.55 to 6.30 | – | 5.55 to 6.30 | 5.55 to 6.30 | Nc1ncccc1C(=O)c1nc(NCC2CCCCN2)ccc1C(F)(F)F (stereo not drawn) [compound 382]
– | 5.55 to 6.30 | – | 5.55 to 6.30 | 5.55 to 6.30 | Cc1cc(Nc2ccc(C(F)(F)F)c(C(=O)c3cccnc3N)n2)[nH]n1 [compound 393]
– | 5.55 to 6.30 | – | 5.55 to 6.30 | 5.55 to 6.30 | Nc1ncccc1C(=O)c1nc(NC2CCCNC2)ccc1C(F)(F)F (stereo not drawn) [compound 381]
– | 5.55 to 6.30 | – | 5.55 to 6.30 | 5.55 to 6.30 | Nc1ncccc1C(=O)c1nc(NC2CCCC(N)C2)ccc1C(F)(F)F (stereo not drawn) [compound 389]
– | < 5.55 | – | 5.55 to 6.30 | 5.55 to 6.30 | Cc1cccc(C)c1C1CN(c2cccc(C(=O)c3cccnc3N)n2)CCN1 (stereo not drawn) [compound 337]
– | 5.55 to 6.30 | – | 5.55 to 6.30 | 5.55 to 6.30 | CC(C)C[C@H]1CN(c2ccc(-c3cnn(C)c3)c(C(=O)c3cccnc3N)n2)CCN1 [compound 420]
– | 5.55 to 6.30 | – | 5.55 to 6.30 | 5.55 to 6.30 | Cc1cc(N)n(-c2ccc(C(F)(F)F)c(C(=O)c3cccnc3N)n2)n1 [compound 394]
– | 5.55 to 6.30 | – | 5.55 to 6.30 | 5.55 to 6.30 | CNCCN(C)c1ccc(C(F)(F)F)c(C(=O)c2cccnc2N)n1 [compound 380]
– | 5.55 to 6.30 | – | 5.55 to 6.30 | 5.55 to 6.30 | CNCCNc1ccc(C(F)(F)F)c(C(=O)c2cccnc2N)n1 [compound 373]
– | 5.55 to 6.30 | – | 5.55 to 6.30 | 5.55 to 6.30 | NCCCCNc1ccc(C(F)(F)F)c(C(=O)c2cccnc2N)n1 [compound 374]
– | 5.55 to 6.30 | – | 5.55 to 6.30 | 5.55 to 6.30 | Nc1ncccc1C(=O)c1nc(NC2CNC2)ccc1C(F)(F)F [compound 375]
– | 5.55 to 6.30 | – | 5.55 to 6.30 | 5.55 to 6.30 | CC(C)C[C@H]1CN(c2ccc(C#CC3CC3)c(C(=O)c3cccnc3N)n2)CCN1 [compound 407]
– | 5.55 to 6.30 | – | 5.55 to 6.30 | 5.55 to 6.30 | Nc1ncccc1C(=O)c1nc(N2CCNCC2)ccc1Cc1ccccc1 [compound 417]
– | 5.55 to 6.30 | – | 5.55 to 6.30 | 5.55 to 6.30 | CC(C)C(CO)Nc1ccc(C(F)(F)F)c(C(=O)c2cccnc2N)n1 (stereo not drawn) [compound 399]
